Patent US9315464B1 (priority 2013, dated 2016)

How the values were obtained:
[1] = tested on: influenza A/Puerto Rico/8/34 virus; assay: Hemagglutination assay of influenza A replication in MDCK cells; format: cell-based; conditions: 75 uM compound, influenza A/Puerto Rico/8/34 dilution series, FIG. 5A
[2] = tested on: influenza A reporter assay system (viral UTR promoter / viral RNA-dependent RNA polymerase); format: cell-based, Influenza A virus (mouse B16-F10 melanoma cells)
[3] = tested on: non-specific promoter (BAX promoter-driven luciferase) in HEK-293T cells; assay: irrelevant promoter-containing cell-based reporter assay (luciferase driven by the BAX promoter, control); conditions: BAX promoter luciferase in HEK-293T cells, indicator of non-specific toxicity

O=C(Nc1ccc(S(=O)(=O)Nc2nccs2)cc1)c1cc(-c2ccccc2)nc2ccccc12 [A0259, 2-phenyl-N-{4-[(1,3-thiazol-2-yl)sulfamoyl]phenyl}quinoline-4-carboxamide]
inhibition of influenza A viral replication in recipient cells (hemagglutination, settling cell buttons) [1]: viral dilutions below a thousand-fold from stock were inhibited from successfully replicating | inhibition of the influenza reporter system [2]: most dramatic inhibition | impact on a non-specific promoter [3]: smallest impact
